Measurements reported in patent US20130253015A1, “Cyclodextrin-Based Microemulsions, and Dermatological Uses Thereof” (PRECISION DERMATOLOGY, INC., priority 2012, published 2013).

Tests used:
[1] = Solubility/dispersibility of retinol in Labrasol-HPGCD-water microemulsion systems; format: physicochemical
Source text: Drug used: 1. Solid Retinol (98%) from Sigma, 2.
Cyclodextrin used: hydroxypropyl-X-cyclodextrin (X=alpha, beta, or gamma).

[2] = cited from earlier work

CC1=C(/C=C/C(C)=C/C=C/C(C)=C/CO)C(C)(C)CCC1 [solid retinol, Retinol]
amount of retinol that can be incorporated into cyclodextrin-based microemulsions ([1]; cyclodextrin-based microemulsions of the invention): greater than 1.0 wt % | miscibility in Labrasol-HPGCD-water microemulsion system ([1]; final retinol concentration 1.2%, clear transparent system (FIG. 4(b), 4(c))): complete miscibility | miscibility in water [2]: immiscible in water
